Data on three compounds can be found in patent US20250263376A1, “(E)-N-CINNAMOYLAMINOALKANOLS WITH MELANOGENESIS INHIBITORY ACTIVITY” (Uniwersytet Jagiellonski, priority 2024, published 2025).

Some results are limits rather than exact numbers.

For data set [1] the following is noted: cream, 7-day application before UV exposure, compared to untreated skin; literature [8]; cited from earlier work.
For the next data set, the target named is tyrosinase. The following applies: literature [6]; read-out: IC50, tyrosinase diphenolase activity; cited from earlier work.
Data set [2] concerns Balb/c 3T3 murine fibroblast cell line. Put plainly: Phototoxicity, neutral red uptake in Balb/c 3T3 fibroblasts. On the procedure: d) Phototoxicity Assessment Using the Balb/c 3T3 Murine Fibroblast Cell Line
Balb/c 3T3 cells, which are an immortalized murine fibroblast cell line, were purchased at ATTC and cultured in the medium recommended by the manufacturer (DMEM GlutaMAX, newborn calf serum (BCS), antibiotics). After multiplication, cells were placed in 96-well plates, which were incubated for 24 hours, after which all wells of the plates were washed with 150 μL of balanced salt solution (HBSS). Then, after drying the plates, 100 μL of a solution of the tested compounds in HBSS with 2% FBS was added to each well and incubated for an hour. After this time, some of the plates were irradiated using the Suntest CPS+sunlight simulator from Atlas with appropriate filters cutting off radiation with a wavelength <320 nm (UVA radiation intensity 5 J/cm^2). The second part of the plates was placed in radiation-free conditions for the same period of time. After the exposure time, the liquid was removed from all plates and the wells were washed twice with 150 μL of HBSS, then supplemented with fresh culture medium and incubated for 24 hours in an incubator (37° C., 5% CO2). Viability was assessed in the neutral red uptake test, which is based on the ability of the dye to penetrate only into living cells. Dye uptake was confirmed by absorbance measurement at 540 nm. […] The appropriate coefficients were also calculated: mean phototoxic effect (MPE) and photoirritation factor (PIF). PIF is the ratio of the IC50 values of unirradiated to irradiated cells, while MPE is based on the comparison of concentration-response curves.

Data set [3] concerns reconstituted human epidermis EpiDerm. To be noted: 21 h, 0.01 %.
Procedure: Phototoxicity Studies in a Model of Reconstructed Human Epidermis.
An epidermis with an area of 0.6 cm^2 was used. After receiving the tissue, the inserts were transferred to fresh medium and incubated in an incubator (5% CO2, 37° C.). All work during epidermis culture and application of the tested compounds and formulations was carried out in a laminar air flow chamber, using aseptic principles and sterile reagents and utensils. […] The applied solutions and formulation were spread on the surface of the inserts using a sterile glass bulb headed Pasteur pipette. The plates were incubated in the incubator for 21 hours, after which the inserts were transferred to new 6-well plates with 0.9 mL DBPS. 1 plate was exposed to UVA radiation at a dose of 6 J/cm^2 using a solar light simulator (Solar Simulator, Atlas) as its source (+UVA plate). The second plate was placed in a dark place outside the incubator for the same period of time (−UVA plate). After exposure, inserts from both plates were rinsed with DPBS, dried with a sterile cotton bud and placed in new plates containing 0.9 mL of fresh growth medium and incubated for 21 hours. […] After this time, the formed formazan was extracted into isopropanol and the absorbance of all samples was read at 270 nm.
Data set [4] concerns human reconstructed epidermis Episkin. Put plainly: Skin irritation test in reconstructed human epidermis Episkin. The following applies: 15 min exposure. The data set is classed as cell-based. The source says: Skin Irritation Tests in a Reconstructed Human Epidermis Model (Episkin™)

One may read the IC50 as the concentration at which inhibition is half-maximal.

As to `O=C(O)C=Cc1ccc(O)cc1` [4-Hydroxycinnamic acid], in data set [1], the “inhibition of erythema formation” value is given as 77%. Also, at tyrosinase, the IC50 is 500 µM.
In the case of `CN(C)CCCN1c2ccccc2Sc2ccc(Cl)cc21` [Chlorpromazine, reference compound], the phototoxic potential result in data set [2] is “clearly indicate its phototoxic potential”. For the same compound, in data set [2] (mouse, 1 h), the “MPE (mean phototoxic effect)” value is recorded as 0.499 and the “PIF (photoirritation factor)” value was found to be 25.618. Further, in data set [3], the “Viability [% relative to water] ± SD, +UVA” value is 26.97 ± 6.05 % relative to water and the “Viability [% relative to water] ± SD, −UVA” value is reported as 99.52 ± 9.41 % relative to water.
As to `CCCCCCCCCCCCOS(=O)(=O)[O-].[Na+]` [SDS, sodium dodecyl sulphate], in data set [4] (42 h incubation, compounds as PEG400 solutions 26 mg/cm^2, SDS 5% aqueous), the “IL-1α concentration in the culture medium” value is greater than 250 pg/mL. In data set [4] (compared to the negative control (PBS and PEG400), 5% aqueous SDS), this compound registered a tissue viability of 23.8%.
